This assay deals with T1, 14-3-3γ/ERRγ complex (Homo sapiens, UniProt P61981+P62508).
T1 construct: made in house; host or cells: E. coli NiCo21 (DE3)
The experiment in a line: Differential scanning fluorimetry (DSF). As to conditions: 5 μM 14-3-3γ, 200 μM compound, relative to DMSO; for ΔTm at 200 µM: read-out: increase in 14-3-3γ melting temperature (ΔTm). Type of assay: binding. The method, then: We screened the apo-14-3-3γ, the binary 14-3-3γ/ERRγ (10 eq.) complex, and the ternary complex of 14-3-3γ, the ERRγ phosphopeptide, and compounds 1 and 3–10 (Figure 2c and Figures S4 and S5). The DSF data corroborated the enhanced stabilization observed in the FA data, with molecular locks 5 and 10 eliciting 14-3-3γ melting temperature increases of 4.7 ± 0.2 and 6.0 ± 0.3 °C, respectively (Figure 2c).
Figure S4. Differential Scanning Fluorimetry. Raw melting curves (a-c, g-i) and derivatives of these melting curves (d-f, j-l) of 14-3-3γ (5 µM) with ERRγ (25 µM) incubated with either DMSO (black) or 200 µM compound 1-10.
(1 picture or pasted object on this page, not shown here)
Figure S5. Differential Scanning Fluorimetry. Raw melting curves (a-c) and derivatives of these melting curves (d-f) of 14-3-3γ (5 µM) with ERRγ (25 µM) incubated with either DMSO (black) or 200 µM compound 1-10. (g) […]
Differential Scanning Fluorimetry (DSF)
Different Scanning Fluorimetry (DSF) assays were performed using 40 µL samples containing 5 µM 14-3-3γ, 50 µM ERRγ pS179 9-mer peptide, 200 µM compound (or 1% DMSO) and 5x ProteoOrange (Lumiprobe, 5000x stock in DMSO) in 10 mM Hepes, 150 mM NaCl, 50 µM TCEP (pH 8.0). The samples were heated from 35 °C to 79 °C at a rate of 0.3 °C per 15 s in a CFX96 Touch Real-Time PCR Detection System (Bio-Rad). Fluorescence intensity was determined using excitation 470/40 nm and emission 570/20 nm filters. Based on these melting curves, the negative derivative melting curve is obtained from which the melting temperature Tm was determined. ΔTm values represent the differences in melting temperature relative to the DMSO control. All described melting temperatures are based on three independent experiments from which the average and standard deviations were determined using excel. […]
Washing steps were repeated three more times. […] Fluorescence was measured using the Tecan SPARK plate reader at room temperature with an excitation wavelength of 485 nm and an emission wavelength of 535 nm. Furthermore, fluorescence anisotropy of each sample was measured using the Tecan Infinite F500 plate reader at room temperature (lex: 485 ± 20 nm; lem: 535 ± 25 nm; mirror: Dichroic 510; flashes: 20; integration time: 50 ms; settle time: 0 ms; gain: 50; and Z-position: calculated from well) to determine whether all 14 -3-3γ was captured by the magnetic beads (should results in low anisotropy values in samp les after capturing in comparison to samples […]
On the technique in general: In DSF a fluorescence change marks the thermal transition of the protein.

Molecules are shown by their SMILES.

Data on four molecules can be found in article PMC10064330, “Reversible Dual-Covalent Molecular Locking of the 14-3-3/ERRγ Protein–Protein Interaction as a Molecular Glue Drug Discovery Approach” (Journal of the American Chemical Society, 2023).

T1 sequence (P61981 whole entry, other chains not shown): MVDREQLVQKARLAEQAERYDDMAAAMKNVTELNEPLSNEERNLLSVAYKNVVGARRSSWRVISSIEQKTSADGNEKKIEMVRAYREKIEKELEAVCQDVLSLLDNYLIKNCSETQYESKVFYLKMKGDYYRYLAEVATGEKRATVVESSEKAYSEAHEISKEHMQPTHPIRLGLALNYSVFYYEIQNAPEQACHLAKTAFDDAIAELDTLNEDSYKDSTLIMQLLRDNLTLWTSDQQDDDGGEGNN

As to `CN(C)CCSSCCN(C)C(=O)c1cc(Br)cc(C=O)c1` [compound 10], the ΔTm at 200 µM (ERRγ 10 eq.) was 6 ± 0.3 °C.
Take `CN(C)CCSSCCN(C)C(=O)c1cccc(F)c1` [compound 1, reference compound]: the “decrease in melting temperature” value (ERRγ) was 2.6 °C.
With `CN(C)CCSSCCN(C)C(=O)c1ccc(C=O)c(F)c1` [compound 5], the ΔTm at 200 µM (ERRγ 10 eq.) turned out to be 4.7 ± 0.2 °C.
`CN(C)CCNC(=O)c1ccc(C=O)c(F)c1` [compound 3]: the “increase in 14-3-3γ melting temperature (ΔTm)” value (ERRγ 10 eq.) is “no significant change”.

As a reminder, the ΔTm is the change in melting temperature against a reference sample.
